Reference: paper PMC8084333, “Trehalose and α-glucan mediate distinct abiotic stress responses in Pseudomonas aeruginosa” (PLoS Genetics, 2021)

Columns and labels:
Type in all cases: biochemical
TreS/Pep2 [1] = biological target: T1, TreS/Pep2 (Pseudomonas aeruginosa, UniProt Q9I1W3); assay: coupled spectrophotometric ADP-release assay (PK/LDH), global fit; details: maltokinase (Pep2 domain); ATP varied, 5 mM MgCl2, pH 8.0, 21 °C; KiB term of random order ternary complex model (substrate dissociation constant), not an inhibition constant
T1 construct: gene PA2152; natural TreS-Pep2 fusion; synthetic codon-optimised gene, N-terminal 6xHis-tag with TEV site, E. coli BL21(DE3), Ni and S200 columns
T1 sequence (Q9I1W3 1-1100): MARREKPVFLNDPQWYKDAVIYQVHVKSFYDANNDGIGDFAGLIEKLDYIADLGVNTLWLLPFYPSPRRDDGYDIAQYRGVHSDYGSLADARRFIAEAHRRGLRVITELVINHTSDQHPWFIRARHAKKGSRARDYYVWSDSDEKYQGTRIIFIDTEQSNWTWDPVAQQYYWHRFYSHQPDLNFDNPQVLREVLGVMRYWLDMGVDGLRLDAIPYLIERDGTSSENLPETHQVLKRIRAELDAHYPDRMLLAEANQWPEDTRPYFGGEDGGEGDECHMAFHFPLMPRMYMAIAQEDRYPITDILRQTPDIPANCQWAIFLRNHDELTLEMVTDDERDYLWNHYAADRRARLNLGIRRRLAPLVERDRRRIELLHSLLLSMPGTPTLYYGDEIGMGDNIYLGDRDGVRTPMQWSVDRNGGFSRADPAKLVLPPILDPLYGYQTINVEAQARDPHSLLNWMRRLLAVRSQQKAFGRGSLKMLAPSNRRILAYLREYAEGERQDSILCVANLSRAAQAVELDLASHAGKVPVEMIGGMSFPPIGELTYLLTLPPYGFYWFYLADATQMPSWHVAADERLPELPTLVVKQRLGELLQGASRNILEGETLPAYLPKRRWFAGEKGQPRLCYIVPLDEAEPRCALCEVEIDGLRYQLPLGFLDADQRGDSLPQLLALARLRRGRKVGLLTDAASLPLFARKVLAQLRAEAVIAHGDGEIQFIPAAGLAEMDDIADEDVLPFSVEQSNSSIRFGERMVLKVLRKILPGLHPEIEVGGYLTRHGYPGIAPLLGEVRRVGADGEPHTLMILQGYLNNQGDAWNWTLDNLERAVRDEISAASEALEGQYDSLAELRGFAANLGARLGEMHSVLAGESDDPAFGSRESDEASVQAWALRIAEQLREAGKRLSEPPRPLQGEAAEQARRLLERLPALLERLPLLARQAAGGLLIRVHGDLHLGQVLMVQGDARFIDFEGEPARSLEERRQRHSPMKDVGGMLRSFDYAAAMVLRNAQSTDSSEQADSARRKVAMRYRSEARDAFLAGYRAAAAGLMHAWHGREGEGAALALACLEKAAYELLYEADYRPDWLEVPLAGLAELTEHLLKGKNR

MalQ = biological target: T2, MalQ (Pseudomonas aeruginosa, UniProt Q9I1V2); assay: MALDI-TOF MS; details: 1 mM substrate; disproportionation
T2 construct: gene PA2163; recombinant, N-terminal 6xHis-tag (pET101), E. coli SoluBL21, HisTrap
T2 sequence (Q9I1V2 1-684): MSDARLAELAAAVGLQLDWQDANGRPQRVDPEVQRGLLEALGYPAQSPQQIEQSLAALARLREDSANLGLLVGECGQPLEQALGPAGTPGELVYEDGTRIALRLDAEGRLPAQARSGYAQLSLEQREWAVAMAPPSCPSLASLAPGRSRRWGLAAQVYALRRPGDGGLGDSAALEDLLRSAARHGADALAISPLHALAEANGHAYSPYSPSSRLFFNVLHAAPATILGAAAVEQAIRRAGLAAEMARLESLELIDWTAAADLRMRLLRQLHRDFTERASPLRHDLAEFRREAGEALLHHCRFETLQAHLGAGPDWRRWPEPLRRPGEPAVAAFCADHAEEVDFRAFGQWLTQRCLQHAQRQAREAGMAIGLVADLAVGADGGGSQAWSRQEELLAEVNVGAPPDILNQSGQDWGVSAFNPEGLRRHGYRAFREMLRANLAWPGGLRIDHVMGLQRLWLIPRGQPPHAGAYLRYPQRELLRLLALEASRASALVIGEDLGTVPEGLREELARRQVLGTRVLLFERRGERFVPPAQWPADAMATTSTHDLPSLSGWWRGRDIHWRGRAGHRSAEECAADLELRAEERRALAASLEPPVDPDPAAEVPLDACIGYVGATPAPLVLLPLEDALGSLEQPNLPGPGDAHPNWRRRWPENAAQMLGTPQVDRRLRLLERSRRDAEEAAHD

TreS/Pep2 [2] = biological target: T1, TreS/Pep2; assay: TreS activity coupled to Pep2 maltokinase ADP-release assay; details: trehalose isomerisation (TreS domain); ATP, 5 mM MgCl2, pH 8.0, 21 °C

Question: How did the “Ki^Mal” value (TreS/Pep2 [1]) turn out when `OC[C@H]1O[C@H](O[C@H]2[C@H](O)[C@@H](O)C(O)O[C@@H]2CO)[C@H](O)[C@@H](O)[C@@H]1O` (stereo partly drawn) [maltose] was run?
Answer: Its value is 550 ± 130 µM.

Question: And the “MALDI-TOF MS” value (MalQ)?
Answer: The value was “We therefore incubated MalQ with maltose”.

Question: With `OC[C@H]1O[C@H](O[C@H]2O[C@H](CO)[C@@H](O)[C@H](O)[C@H]2O)[C@H](O)[C@@H](O)[C@@H]1O` [trehalose] as the compound, how does the Km (TreS/Pep2 [2]) read?
Answer: Its Km is greater than 100 mM.
